Reference: US11634393B2, “Substituted tolyl fungicides” (FMC CORPORATION, priority 2018, dated 2023)

Columns and labels:
[1] = system: Puccinia recondita f. sp. tritici; assay: Test B: wheat leaf rust, spray on wheat seedlings, disease control rating; format: in vivo; conditions: Rate 10 ppm, 100 = 100% disease control, 0 = no disease control relative to the controls; for pest or weed control at 10 ppm: Puccinia recondita, 192 h
Description: (§1) General protocol for preparing test suspensions for Tests A-F: the test compounds were first dissolved in acetone in an amount equal to 3% of the final volume and then suspended at the desired concentration (in ppm) in acetone and purified water (50/50 mix by volume) containing 250 ppm of the surfactant PEG400 (polyhydric alcohol esters). The resulting test suspensions were then used in Tests A-F.
The test solution was sprayed to the point of run-off on wheat seedlings. The following day the seedlings were inoculated with a spore suspension of Puccinia recondita f. sp. tritici (the causal agent of wheat leaf rust) and incubated in a saturated atmosphere at 20° C. for 24 h, and then moved to a growth chamber at 20° C. for 7 days, after which time disease ratings were made.
(§2) A rating of 100 indicates 100% disease control and a rating of 0 indicates no disease control (relative to the controls). A dash (-) indicates the compound was not tested.

Phakopsora pachyrhizi = assay: Test D: Asian soybean rust, spray on soybean seedlings, disease control rating; format: in vivo; conditions: Rate 10 ppm, 100 = 100% disease control, 0 = no disease control relative to the controls; for pest or weed control at 10 ppm: Phakopsora pachyrhizi, 216 h
Description: as §1
The test solution was sprayed to the point of run-off on soybean seedlings. The following day the seedlings were inoculated with a spore suspension of Phakopsora pachyrhizi (the causal agent of Asian soybean rust) and incubated in a saturated atmosphere at 22° C. for 24 h and then moved to a growth chamber at 22° C. for 8 days, after which time visual disease ratings were made.
as §2

Compound | Test B disease control rating [1] [%] | Test D disease control rating (Phakopsora pachyrhizi) [%] | pest or weed control at 10 ppm [1] [%] | pest or weed control at 10 ppm (Phakopsora pachyrhizi) [%]
COC(=O)NCc1cc(-c2ccn(-c3c(F)cc(OCC4CCCO4)cc3F)n2)ccc1C (centres unmarked) [Compound 23] | 68 | 25 |  | 
C=C(C)c1cc(F)c(-n2ncc(-c3ccc(C)c(CNC(=O)OC)c3)n2)c(F)c1 [Compound 110] | 95 | 100 |  | 
COC(=O)NCc1cc(-c2ccn(-c3c(Cl)cccc3I)n2)ccc1C [Compound 59] |  |  | 45 | 87
COC(=O)NCc1cc(-c2ccn(-c3c(Cl)cc(C(F)(C(F)(F)F)C(F)(F)F)cc3Cl)n2)ccc1C [Compound 138] | 74 | 87 |  | 
COC(=O)NCc1cc(-c2ccn(-c3c(F)cc(OCC4CCC4)cc3F)n2)ccc1C [Compound 31] | 91 | 0 |  | 
COC(=O)NCc1cc(-c2ccn(-c3c(F)cc(OCC(F)(F)F)cc3F)n2)ccc1C [Compound 22] |  |  | 99 | 100
COC(=O)NCc1cc(-c2ccn(-c3c(Br)cccc3Br)n2)ccc1C [Compound 58] |  |  | 68 | 100
COC(=O)NCc1cc(-c2ccn(-c3c(F)cc(C4CC4(Cl)Cl)cc3F)n2)ccc1C (centres unmarked) [Compound 88] | 100 | 100 |  | 
CON=C(C)c1cc(F)c(-n2ccc(-c3ccc(C)c(CNC(=O)OC)c3)n2)c(F)c1 [Compound 83, methyl N-[[5-[1-[2,6-difluoro-4-[1-(methoxyimino)ethyl]phenyl]-1H-pyrazol-3-yl]-2-methylphenyl]methyl]carbamate] |  |  | 100 | 100
C=CCOc1cc(F)c(-n2ccc(-c3ccc(C)c(CNC(=O)OC)c3)n2)c(F)c1 [Compound 94] | 85 | 99 |  | 
COC(=O)NCc1cc(-c2ccn(-c3c(F)cc(OC(=O)OC)cc3F)n2)ccc1C [Compound 17] | 0 | 0 |  | 
COC(=O)NCc1cc(-c2ccn(-c3c(F)cc(OC4CC(F)(F)C4)cc3F)n2)ccc1C [Compound 98] | 99 | 100 |  | 
COC(=O)NCc1cc(-c2ccn(-c3c(F)cc(OCC(C)C)cc3F)n2)ccc1C [Compound 12] | 98 | 100 |  | 
COC(=O)NCc1cc(-c2ccn(-c3c(F)cc(OC(C)=O)cc3F)n2)ccc1C [Compound 18] | 41 | 65 |  | 
COC(=O)NCc1cc(-c2ccn(-c3c(C)cccc3Br)n2)ccc1C [Compound 61] |  |  | 68 | 97
COC(=O)NCc1cc(-c2ccn(-c3c(F)cc(CO)cc3F)n2)ccc1C [Compound 71, methyl N-[[5-[1-[2,6-difluoro-4-(hydroxymethyl)phenyl]-1H-pyrazol-3-yl]-2-methylphenyl]methyl]carbamate] |  |  | 0 | 25
C=CCON=Cc1cc(F)c(-n2ccc(-c3ccc(C)c(CNC(=O)OC)c3)n2)c(F)c1 [Compound 81] | 92 | 100 |  | 
COC(=O)NCc1cc(-c2ccn(-c3c(F)cc(CC(C)=O)cc3F)n2)ccc1C [Compound 75] | 0 | 87 |  | 
COC(=O)NCc1cc(-c2ccn(-c3c(F)cccc3Br)n2)ccc1C [Compound 46] |  |  | 68 | 100
CON=Cc1cc(F)c(-n2ccc(-c3ccc(C)c(CNC(=O)OC)c3)n2)c(F)c1 [Compound 79] | 100 | 100 |  | 
COC(=O)NCc1cc(-c2ccn(-c3c(F)cc(F)cc3SC)n2)ccc1C [Compound 19] |  |  | 0 | 81
COC(=O)NCc1cc(-c2ccn(-c3c(F)cc(OCC4COC4)cc3F)n2)ccc1C [Compound 32] | 0 | 77 |  | 

Compound | Test B disease control rating [1] [%] | Test D disease control rating (Phakopsora pachyrhizi) [%] | pest or weed control at 10 ppm [1] [%] | pest or weed control at 10 ppm (Phakopsora pachyrhizi) [%]
COC(=O)NCc1cc(-c2cnn(-c3c(F)cc(CC(C)C)cc3F)n2)ccc1C [Compound 109] |  |  | 91 | 100
COC(=O)NCc1cc(-c2ccn(-c3c(F)cc(SC)cc3F)n2)ccc1C [Compound 27] |  |  | 99 | 100
C#Cc1cc(F)c(-n2ccc(-c3ccc(C)c(CNC(=O)OC)c3)n2)c(F)c1 [Compound 53, methyl N-[[5-[1-(4-ethynyl-2,6-difluorophenyl)-1H-pyrazol-3-yl]-2-methylphenyl]methyl]carbamate] |  |  | 100 | 100
COC(=O)NCc1cc(-c2ccn(-c3c(F)cc(N)cc3Cl)n2)ccc1C [Compound 39] |  |  | 0 | 0
COC(=O)NCc1cc(-c2ccn(-c3c(F)cc(F)cc3F)n2)ccc1C [Compound 16] |  |  | 99 | 100
CCON=C(C)c1cc(F)c(-n2ccc(-c3ccc(C)c(CNC(=O)OC)c3)n2)c(F)c1 [Compound 84] | 100 | 100 |  | 
COC(=O)NCc1cc(-c2ccn(-c3c(Cl)cc(C(C)C)cc3Cl)n2)ccc1C [Compound 135] |  |  | 86 | 100
COC(=O)NCc1cc(-c2ccn(-c3c(F)cc(C=NOC(C)C)cc3F)n2)ccc1C [Compound 82] | 95 | 100 |  | 
COC(=O)NCc1cc(-c2ccn(-c3c(F)cccc3Cl)n2)ccc1C [Compound 47] |  |  | 74 | 100
COC(=O)NCc1cc(-c2ccn(-c3c(F)cc(C4CC4)cc3F)n2)ccc1C [Compound 41, methyl N-[[5-[1-(4-cyclopropyl-2,6-difluorophenyl)-1H-pyrazol-3-yl]-2-methylphenyl]methyl]carbamate] |  |  | 100 | 100
C=C(C)c1cc(F)c(-n2ccc(-c3ccc(C)c(CNC(=O)OC)c3)n2)c(F)c1 [Compound 62] | 99 | 100 |  | 
COC(=O)NCc1cc(-c2ccn(-c3c(Cl)cc(N)cc3Cl)n2)ccc1C [Compound 55] |  |  | 0 | 0
COC(=O)NCc1cc(-c2ccn(-c3c(F)cc(OC4CCCC4)cc3F)n2)ccc1C [Compound 90] | 86 | 100 |  | 
COC(=O)NCc1cc(-c2ccn(-c3c(F)cc(OCC4CC4)cc3F)n2)ccc1C [Compound 9] | 99 | 99 |  | 
COC(=O)NCc1cc(-c2ccn(-c3c(F)cc(OC4CCCCC4)cc3F)n2)ccc1C [Compound 91] | 86 | 79 |  | 
COC(=O)NCc1cc(-c2ccn(-c3c(F)cc(Br)cc3Cl)n2)ccc1C [Compound 50] |  |  | 100 | 100
COC(=O)NCc1cc(-c2ccn(-c3c(F)cc(I)cc3SC)n2)ccc1C [Compound 26] |  |  | 73 | 87
COC(=O)NCc1cc(-c2ccn(-c3c(F)cc(SC)cc3SC)n2)ccc1C [Compound 28] |  |  | 0 | 100
COC(=O)NCc1cc(-c2cnn(-c3c(F)cc(C(C)=NOC(C)C)cc3F)n2)ccc1C [Compound 143] | 74 | 100 |  | 
COC(=O)NCc1cc(-c2ccn(-c3c(F)cc(OC(C)(C)C)cc3F)n2)ccc1C [Compound 93] | 100 | 100 |  | 
COC(=O)NCc1cc(-c2ccn(-c3c(F)cc(NC(C)=O)cc3F)n2)ccc1C [Compound 25] | 8 | 81 |  | 
